According to patent publication US12084422B2, “Phenyl-n-quinoline derivatives for treating a RNA virus infection” (ABIVAX, priority 2018, dated 2024):

System: Chikungunya Virus (CHIKV) strain LR2006-OPY1 with GFP modification (CHIK 5'LR)
Assay: Inhibition of Chikungunya virus (CHIKV) production in infected HEK293T cell line (GFP fluorescence)
Type: cell-based
Conditions: HEK-293T, infected HEK293T cells; for inhibition at 1 µM: compounds at 1 μM, MOI 0.1, 22 h, values above 100 lowered to 100, read-out: % CHIKV Inhibition Mean (n = 2); for IC50: second round of experiments
Procedure: The ability of the compounds to inhibit viral replication was assessed with an experiment in which infected cells were treated by compounds of formula (I) at 1 μM. As a positive control for inhibition of Chikungunya, Ribavirin was used. Toxicity of the compounds was assessed in parallel.
Human embryonic kidney cells 293T (HEK293T, CRL-11268) were maintained in Dulbecco's modified Eagle's Medium (DMEM, 31966-021, Thermo Fisher Scientific) supplemented with 10% of fetal bovine serum (FBS), penicillin and streptomycin. After removal of the medium, cells were washed with a Ca^2+- and Mg^2+-free salt solution to remove all traces of serum. After aspiration of wash solution, cells were dissociated with 0.25% Trypsin-EDTA solution and incubated 30 s at least in 37° ° C. incubator. Concentration of cell suspension was determined by an automatic cell counter (EVE, NanoEntek) and, if needed, adjusted to 0.33×10^6 cells/mL with DMEM medium supplemented with 10% FBS.
100 μL of the cell suspension were dispatched in a ViewPlate-96 Black (6005182, PerkinElmer) and in a transparent 96-well cell culture plate (655180, Greiner bio-one). After an incubation for 24 h at 37° C. under 5% of CO2, compounds were added at the proper concentration.
An intermediate dilution was prepared with DMSO (D8418, Sigma) at 2 mM in a 96-well V-bottom microplate from the stock solution:
Mix 1 μL of the 50 mM stock library in 25 μL of DMSO.
Mix 2 μL of the 25 mM stock library in 25 μL of DMSO.
An intermediate dilution was prepared with DMSO (D8418, Sigma) at 25 mM in a 96-well V-bottom microplate from the stock solution:
Mix 2 μL of the 50 mM stock library in 2 μL of DMSO.
Serial dilutions were performed in 2 μL of DMSO 13 times to reach 0.0015 mM as follows in table III:
For both screen and determination of IC50 1 μL of each solution was added in a 1 mL Masterblock 96 wells (Greiner bio-one, 780261) containing 1 mL of DMEM medium. As a positive control, 5 μL of a 80 mM Ribavirin solution (R9644, Sigma) is added to 1 mL of DMEM. On the other hand, DMSO is used as a negative control.
[…]. Vector Borne Zoonotic Dis. 2006; 6(4)). This modified virus was used to infect cells at MOI 0.1. […].
Medium was removed after 22 h at 37° ° C. under 5% of CO2 and cells were washed as described above. 60 μL of RIPA buffer (50 mM Tris-HCl pH8, 100 mM NaCl, 1 mM MgCl2, 1% Triton X-100) was added to cells and incubated for at least 20 min before reading fluorescence signal. Pierce 660 nm Protein Assay Reagent (22660, Thermo scientific) was used to normalize fluorescence signal by protein quantity.
A first round of experiments has been performed wherein the results are expressed as inhibition percentage, which is calculated as follows, through the following steps:
1. Fluorescence intensity (FI) 509 nm/Absorbance 660 nm (A660)=A
This ratio allows considering the infection (GFP virus) to the protein amount.
2. A′=A—background noise of non-infected plate,
3. B=Fluorescence intensity (FI)/Absorbance 660 nm (A660) of infected but non treated plates,
4. C=A′/B which is then converted as the percentage of infection after treatment, compared to non-treated sample, and subsequently as the […]. For instance, a value of 100 in Table IV here below means that, after treatment, the signal attributed to GFP fluorescence is abolished, which is correlated to the absence of infection.
This value corresponds to the inhibition's percentage.
The following Table IV encompasses said C′ value for some compounds as calculated above with a mean of 2 experiments, and the corresponding standard deviation.
Some values were originally above 100. In these cases, the value has been lowered to 100. This means that some molecules also have an impact on the viability of the cells. In other words, the A value may be lower than the background noise.
Moreover, for each measure, the test was performed with Ribavirin as control. The value of the inhibition percentage was checked, giving 100%.

Compound	inhibition at 1 µM	IC50
Cc1cc(OC(C)C)ccc1Nc1ccc2cccc(Cl)c2n1 [Compound 10, 8-chloro-N-(4-isopropoxy-2-methylphenyl)quinolin-2-amine]	100%	0.001 to 0.2 µM
CCc1cc(OC(C)C)ccc1Nc1ccc2cccc(Cl)c2n1 [Compound 13, 8-chloro-N-(2-ethyl-4-isopropoxyphenyl)quinolin-2-amine]	100%	0.001 to 0.2 µM
Cc1cc(OC(C)C)c(C)cc1Nc1ccc2cccc(Cl)c2n1 [Compound 43, 8-chloro-N-(4-isopropoxy-2,5-dimethylphenyl)quinolin-2-amine]		0.001 to 0.2 µM
